Source: patent US7749728B2, “Method and system for measuring the penetration of drugs and other substances into tissue” (Cabenda Pharmaceutical Research Limited, priority 2003, dated 2010)

Key:
HCT-116 MCCs [1] = assay: MCC penetration assay, effect-based (BrdUrd S-phase labeling after exposure from one side); format: cell-based, human; details: for decrease in drug exposure seen by cells on the far side relative to the near side / trend of BrdUrd labeling with drug concentration: 1 day after 1-h exposure; for decrease in drug exposure seen by cells on the far side relative to the near side: near-side concentration matching the effect of 10 μM on the far side; for trend of BrdUrd labeling with drug concentration: first 30 μm of tissue
Experimental: Standard tissue culture inserts 10 (CM 12 mm, pore size 0.4 μm, Millipore, Nepean, ON, Canada) were coated with 150 μl collagen (rat tail type I, Sigma), dissolved in 0.01 M HCl and diluted 1:4 with 60% Ethanol to 0.75 mg/ml, and allowed to dry over night. HCT-116, 0.75×10^6 in 0.5 ml growth media, were then added to the inserts 10 and incubated for 15 hours to allow the cells to attach. The cultures 16 were then incubated for 2 days in custom built growth vessels 21 (FIG. 1(b)) to form multilayered cell cultures (MCCs) 16 which are ˜150 μm in thickness. Each growth vessel 21 includes a frame 23 that held the inserts 10 completely immersed in 130 ml of stirred media (700 rpm, 25 mm stir bar) under continual gassing (5% CO2, balance air) at 37° C. The MCCs 16 were grown in batches of 8 cultures of which 6 were treated with drug and 2 were kept as untreated controls.
MCCs 16 were exposed to anthracyclines from one exposed side 18 using a polyarcylate apparatus 22 (FIG. 2) designed such that the bottom of each insert 10 is clamped against a flat block 24 of apparatus 22 with a layer of Parafilm (American National Can, Chicago, Ill., USA) sandwiched in between to ensure a complete seal. Each MCC 16 was exposed to a 7.5 ml stirred reservoir 28 kept under controlled gassing and temperature. A silicone O-ring 34 was used to seal the gap between the MCC 16 and the orifice in the reservoir 28. Once placed in the apparatus 22, MCCs 16 were allowed to equilibrate for 45 minutes, drug was then added to the growth medium at concentrations of 0.3, 1, 3 and 10 μM. After 1-hour drug exposure, the reservoirs 28 were rinsed twice with fresh media. MCCs 16 were then incubated for a second hour prior to removal from the apparatus 22 to allow initial drug wash out from the exposed side 18 only. MCCs 16 were then removed, rinsed in fresh media three times for 15 seconds and placed in a growth vessel 21 containing 2 untreated control MCCs 16. Media was replaced at 1 and 4 hours following return to the growth vessel 21, to reduce residual drug levels. Incubation with control MCCs 16 ruled out the possibility that drug wash out into the media from the exposed sides 18 of the MCCs 16 was affecting results. MCCs 16 were left for 1 or 3 days from the time of beginning drug exposure to allow manifestation of drug effect. Following this, 100 μM BrdUrd (5-bromo-2-deoxyuridine, Sigma Chemical, Oakville, ON, Canada) was added to the media and cultures incubated for 4 hours to label S-phase cells. MCCs 16 were then removed, frozen in O.C.T. medium (Tissue-TEK, Torrance, Calif., USA) and stored at −80° C. until sectioning.
MCC cryosections (10 μm) were air dried for 24 hours and then fixed in a 1:1 mixture of acetone-methanol for 10 minutes at room temperature. Slides were immediately transferred to distilled water for 10 minutes and then treated with 2 M HCl at room temperature for 1 hour followed by neutralization for 5 minutes in 0.1 M Sodium Borate. Slides were then washed in distilled water and transferred to a PBS (phosphate buffered saline) bath. Subsequent steps were each followed by a 5 minute wash in PBS. BrdUrd incorporated into DNA was detected using a 1:200 dilution of monoclonal mouse anti-BrdUrd (clone BU33, Sigma) followed by 1:100 dilution of anti-mouse peroxidase conjugate antibody (Sigma) and 1:10 dilution of metal enhanced DAB substrate (Pierce, Rockford, Ill.). Slides were then counterstained with haematoxylin, dehydrated and mounted using Permount (Fisher Scientific, Fair Lawn, N.J., USA).
The imaging system consisted of a flurouresence microscope (Zeiss III RS, Oberkochen, Germany), a cooled, monochrome CCD video camera (model 4922, Cohu, San Diego, Calif., USA), frame grabber (Scion, Frederick, Md., USA), a custom built motorized x-y stage and customized NIH-Image software (public domain program developed at the U.S. National Institutes of Health) running on a G4 Macintosh computer. […]

[2] = weak bases; cited from earlier work
cells = details: uptake rate vs DOX; cited from earlier work
HCT-116 MCCs [3] = assay: Fluorescence based evaluation of anthracycline penetration in MCCs; format: cell-based, human; details: immediately after 1-h, 10 µM drug exposure
Experimental: MCCs 16 were exposed to anthracyclines from one exposed side 18 using a polyarcylate apparatus 22 (FIG. 2) designed such that the bottom of each insert 10 is clamped against a flat block 24 of apparatus 22 with a layer of Parafilm (American National Can, Chicago, Ill., USA) sandwiched in between to ensure a complete seal. Each MCC 16 was exposed to a 7.5 ml stirred reservoir 28 kept under controlled gassing and temperature. A silicone O-ring 34 was used to seal the gap between the MCC 16 and the orifice in the reservoir 28. […] After 1-hour drug exposure, the reservoirs 28 were rinsed twice with fresh media. […]
The imaging system consisted of a flurouresence microscope (Zeiss III RS, Oberkochen, Germany), a cooled, monochrome CCD video camera (model 4922, Cohu, San Diego, Calif., USA), frame grabber (Scion, Frederick, Md., USA), a custom built motorized x-y stage and customized NIH-Image software (public domain program developed at the U.S. National Institutes of Health) running on a G4 Macintosh computer. […] For drug fluorescence visualization, MCCs were imaged using unmounted cryosections 1-hour after sectioning using a 510-555 nm excitation filter and a 575-640 nm emission filter.
Using the NIH-Image software application and user supplied algorithms, digital images of BrdUrd staining and drug fluorescence within MCC cryosections were analyzed in the following manner. […]

[4] = system: multi-layered cell culture; assay: Example 1: BrdUrd labeling in multi-layered cell culture exposed from one side; format: cell-based; details: one hour exposure from one side, 24 hours in fresh media; 5, 10 and 100 μM
Experimental: FIGS. 5 and 6 illustrate test results relating to a multi-layered cell culture 16 exposed to the anthracycline doxorubicin (DOX) (i.e. the test material). Cultures 16 were exposed to doxorubicin (at differing concentrations) from one side 18 only for one hour and then incubated for 24 hours in fresh media. Cultures 16 were then exposed to bromodeoxyuridine (BrdUrd) for two hours to label proliferating cells. BrdUrd is a thymidine analogue that is incorporated into DNA during the S phase of the cell cycle and is therefore an effective marker of cellular proliferation. Following BrdUrd exposure, cultures 16 were frozen and cyrosections taken from them. Cryosections were then immunostained to detect BrdUrd labeled S-phase cells. FIG. 6 illustrates the distribution of BrdUrd-labelled cells as a function of position within the cultures. The results clearly indicate that tissue penetration limits doxorubicin effectiveness.

[5] = system: V79 multicellular spheroids; details: ~3.5 μM×h exposure, 24 hours in drug free medium before disaggregation; cited from earlier work

Row | SMILES | decrease in drug exposure seen by cells on the far side relative to the near side (HCT-116 MCCs [1]) | trend of BrdUrd labeling with drug concentration (HCT-116 MCCs [1]) | pKa [2] | rate of entering cells relative to DOX (cells) | fluorescence level on the near side relative to DOX (HCT-116 MCCs [3]) [times] | concentration at which an equal effect is exerted on either edge of the MCC (HCT-116 MCCs [1]; 1 hour exposure at 0.3, 1, 3 and 10 μM, 1 day incubation) [µM] | effect on proliferating cells as a function of position within the culture [4] | surviving fraction, 130 μm into the tissue [5] | surviving fraction, exposed outer layers [5]
1 | O=C1c2c(O)ccc(O)c2C(=O)c2c(NCCNCCO)ccc(NCCNCCO)c21 [MIT, mitoxantrone] | greater than 30 fold | increase in labeling on the near side with increasing drug concentration | ~8.3 |  |  |  |  |  | 
2 | COc1cccc2c1C(=O)c1c(O)c3c(c(O)c1C2=O)C[C@@](O)(C(C)=O)C[C@@H]3O[C@H]1C[C@H](N)[C@H](O)[C@H](C)O1 [DAU, daunorubicin] | ~30 fold | decreasing labeling with increasing drug concentration | ~8.3 | 3-10 times | ~7 |  |  |  | 
3 | COc1cccc2c1C(=O)c1c(O)c3c(c(O)c1C2=O)C[C@@](O)(C(=O)CO)C[C@@H]3O[C@H]1C[C@H](N)[C@@H](O)[C@H](C)O1 [EPI, epirubicin] | ~10 fold | decreasing labeling with increasing drug concentration | ~8.1 | approximately twice | ~1.5 | 10 |  |  | 
4 | COc1cccc2c1C(=O)c1c(O)c3c(c(O)c1C2=O)C[C@@](O)(C(=O)CO)C[C@@H]3O[C@H]1C[C@H](N)[C@H](O)[C@H](C)O1 [DOX, doxorubicin] | ~12 fold | decreasing labeling with increasing drug concentration | ~8.3 |  |  |  | at low concentrations doxorubicin only affects cells close to the site of exposure | ~0.6 | ~0.2
